This passage reports IC50 max results from ChEMBL document CHEMBL1128172, “Structure-activity relationships of cyclic pentapeptide endothelin A receptor antagonists” (J Med Chem, 1995).

Some results are limits rather than exact numbers.

In this experiment the target is T1, Endothelin-1 receptor (Sus scrofa, UniProt Q29010).
T1 sequence (Q29010 whole entry): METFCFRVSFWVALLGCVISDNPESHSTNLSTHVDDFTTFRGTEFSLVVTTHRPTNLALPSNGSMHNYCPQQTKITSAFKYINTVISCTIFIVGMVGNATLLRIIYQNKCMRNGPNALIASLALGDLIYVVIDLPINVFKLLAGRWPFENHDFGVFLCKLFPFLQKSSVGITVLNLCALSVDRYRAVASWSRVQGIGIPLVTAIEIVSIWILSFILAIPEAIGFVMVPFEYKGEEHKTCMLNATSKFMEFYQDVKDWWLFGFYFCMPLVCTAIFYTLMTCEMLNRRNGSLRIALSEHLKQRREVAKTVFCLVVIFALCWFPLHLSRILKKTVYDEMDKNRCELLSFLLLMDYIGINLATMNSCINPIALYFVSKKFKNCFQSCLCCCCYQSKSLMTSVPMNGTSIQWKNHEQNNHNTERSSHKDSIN
The experiment can be described thus: The compound was tested for binding inhibitory activity against Endothelin A receptor from porcine aortic smooth muscle membranes.
For the compound `CC(C)C[C@@H]1NC(=O)[C@@H](C)NC(=O)[C@H](CC(=O)O)NC(=O)[C@H](Cc2c[nH]c3ccccc23)NC(=O)[C@@H](CC(C)C)NC1=O`, the IC50 max came to 0.44 µM.

Take `CC[C@H](C)[C@H]1NC(=O)[C@@H]2CCCN2C(=O)[C@@H](CC(=O)O)NC(=O)[C@@H](Cc2c[nH]c3ccccc23)NC(=O)[C@H](CC(C)C)NC1=O`: the IC50 max stood at 0.012 µM.

`CC[C@@H](C)[C@H]1NC(=O)[C@@H]2CCCN2C(=O)[C@@H](CC(=O)O)NC(=O)[C@@H](Cc2c[nH]c3ccccc23)NC(=O)[C@H](CC(C)C)NC1=O` yielded an IC50 max of 0.064 µM.

In turn, `CC(C)C[C@@H]1NC(=O)[C@@H]([C@H](C)O)NC(=O)[C@H](C)NC(=O)[C@@H](CC(=O)O)NC(=O)[C@@H](Cc2c[nH]c3ccccc23)NC1=O` gave an IC50 max of 4.2 µM.

`CC(C)C[C@H]1NC(=O)[C@H](C(C)C)NC(=O)[C@H]2C[C@@H](O)CN2C(=O)[C@H](CC(=O)O)NC(=O)[C@H](Cc2c[nH]c3ccccc23)NC1=O` came in with an IC50 max of 0.018 µM.

`CC(C)C[C@@H]1NC(=O)[C@@H](C(C)C)NC(=O)[C@@H]2CCCCN2C(=O)[C@@H](CC(=O)O)NC(=O)[C@@H](Cc2c[nH]c3ccccc23)NC1=O` came in with an IC50 max of 0.013 µM.

With `CC(C)C[C@@H]1NC(=O)[C@@H](C(C)C)NC(=O)[C@H](CCCCN)NC(=O)[C@@H](CC(=O)O)NC(=O)[C@@H](Cc2c[nH]c3ccccc23)NC1=O` (single isomer, unassigned), the IC50 max was found to be 0.2 µM.

Take `CC(C)C[C@@H]1NC(=O)[C@@H](C(C)C)NC(=O)[C@H](CO)NC(=O)[C@@H](CC(=O)O)NC(=O)[C@@H](Cc2c[nH]c3ccccc23)NC1=O` (single isomer, unassigned): the IC50 max came out at 0.19 µM.

The compound `CC(C)C[C@@H]1NC(=O)[C@@H](C(C)C)NC(=O)[C@H](C(C)C)NC(=O)[C@@H](CC(=O)O)NC(=O)[C@@H](Cc2c[nH]c3ccccc23)NC1=O` (single isomer, unassigned) returned an IC50 max of 0.53 µM.

Compound `CC(C)C[C@@H]1NC(=O)[C@@H](C(C)C)NC(=O)[C@H](CC(=O)O)NC(=O)[C@@H](CC(=O)O)NC(=O)[C@@H](Cc2c[nH]c3ccccc23)NC1=O` (single isomer, unassigned) came in with an IC50 max of 0.18 µM.

`CC(C)C[C@@H]1NC(=O)[C@@H](C(C)C)NC(=O)[C@H](CCCN=C(N)N)NC(=O)[C@@H](CC(=O)O)NC(=O)[C@@H](Cc2c[nH]c3ccccc23)NC1=O` (single isomer, unassigned): the IC50 max amounted to 0.15 µM.

For `CC(C)C[C@H]1C(=O)N[C@H](Cc2c[nH]c3ccccc23)C(=O)N[C@H](CC(=O)O)C(=O)N2CCC[C@H]2C(=O)N[C@H](C(C)C)C(=O)N1C` (single isomer, unassigned), the IC50 max was found to be 0.035 µM.

`CC(C)C[C@@H]1NC(=O)CNC(=O)[C@H](CO)NC(=O)[C@@H](CC(=O)O)NC(=O)[C@@H](Cc2c[nH]c3ccccc23)NC1=O` (single isomer, unassigned) returned an IC50 max of 35 µM.

In the case of `CC(C)C[C@@H]1NC(=O)[C@@H](C(C)C)NC(=O)[C@H](C)NC(=O)[C@H](CCC(=O)O)NC(=O)[C@H](Cc2c[nH]c3ccccc23)NC1=O` (single isomer, unassigned), the IC50 max is > 100 µM.

Regarding `CC(C)C[C@@H]1NC(=O)[C@@H](C(C)C)NC(=O)[C@H](C)NC(=O)[C@@H](CCC(=O)O)NC(=O)[C@H](Cc2c[nH]c3ccccc23)NC1=O` (single isomer, unassigned), the IC50 max was > 100 µM.

`CC(C)C[C@@H]1NC(=O)[C@@H](C(C)C)NC(=O)[C@H](C)NC(=O)[C@H](CCC(=O)O)NC(=O)[C@@H](Cc2c[nH]c3ccccc23)NC1=O` (single isomer, unassigned): the IC50 max is > 100 µM.

With `CC(C)C[C@@H]1NC(=O)[C@@H](CC(=O)O)NC(=O)[C@H](CO)NC(=O)[C@@H](CC(=O)O)NC(=O)[C@@H](Cc2c[nH]c3ccccc23)NC1=O` (single isomer, unassigned), the IC50 max was > 100 µM.

In turn, `CC(C)C[C@@H]1NC(=O)[C@@H](C(C)C)NC(=O)[C@H](C)NC(=O)[C@@H](CC(=O)O)NC(=O)[C@@H](Cc2c[nH]c3ccccc23)NC1=O` (single isomer, unassigned) showed an IC50 max of 0.11 µM.

Turning to `CC(C)C[C@@H]1NC(=O)[C@@H](C(C)C)NC(=O)[C@H](Cc2cnc[nH]2)NC(=O)[C@@H](CC(=O)O)NC(=O)[C@@H](Cc2c[nH]c3ccccc23)NC1=O` (single isomer, unassigned), the IC50 max turned out to be 0.24 µM.

As to `CC(C)C[C@@H]1NC(=O)[C@@H](C(C)(C)C)NC(=O)[C@@H]2CCCN2C(=O)[C@@H](CC(=O)O)NC(=O)[C@@H](Cc2c[nH]c3ccccc23)NC1=O` (single isomer, unassigned), the IC50 max turned out to be 0.015 µM.

Take `CSCC[C@@H]1NC(=O)[C@@H](CC(=O)O)NC(=O)[C@@H](Cc2c[nH]c3ccccc23)NC(=O)[C@H](CC(C)C)NC(=O)[C@@H](C(C)C)NC1=O` (single isomer, unassigned): the IC50 max stood at 0.13 µM.

`CC(C)C[C@@H]1NC(=O)[C@@H](C(C)C)NC(=O)[C@@H]2CCCN2C(=O)[C@@H](CCC(=O)O)NC(=O)[C@@H](Cc2c[nH]c3ccccc23)NC1=O` (single isomer, unassigned) returned an IC50 max of 0.41 µM.

Take `CC(C)C[C@@H]1NC(=O)[C@@H](C2=CCC=CC2)NC(=O)[C@@H]2CCCN2C(=O)[C@@H](CC(=O)O)NC(=O)[C@@H](Cc2c[nH]c3ccccc23)NC1=O` (single isomer, unassigned): the IC50 max came out at 0.019 µM.

As to `CCC[C@H]1NC(=O)[C@@H]2CCCN2C(=O)[C@@H](CC(=O)O)NC(=O)[C@@H](Cc2c[nH]c3ccccc23)NC(=O)[C@H](CC(C)C)NC1=O` (single isomer, unassigned), the IC50 max is 0.047 µM.

Consider `CC(C)C[C@@H]1NC(=O)[C@@H](C(C)C)NC(=O)[C@H](CCC(N)=O)NC(=O)[C@@H](CC(=O)O)NC(=O)[C@@H](Cc2c[nH]c3ccccc23)NC1=O` (single isomer, unassigned), for which the IC50 max amounted to 0.16 µM.

For `COC(=O)C[C@H]1NC(=O)[C@@H](Cc2c[nH]c3ccccc23)NC(=O)[C@H](CC(C)C)NC(=O)[C@@H](C(C)C)NC(=O)[C@@H]2CCCN2C1=O` (single isomer, unassigned), the IC50 max amounted to 0.39 µM.

`CC(C)C[C@@H]1NC(=O)[C@@H](C(C)C)NC(=O)[C@@H]2CCCN2C(=O)[C@@H](CC(=O)O)NC(=O)[C@@H](Cc2cn(C=O)c3ccccc23)NC1=O` (single isomer, unassigned) gave an IC50 max of 0.018 µM.

Consider `CC(C)C[C@@H]1NC(=O)[C@@H](c2ccccc2)NC(=O)[C@@H]2CCCN2C(=O)[C@@H](CC(=O)O)NC(=O)[C@@H](Cc2c[nH]c3ccccc23)NC1=O` (single isomer, unassigned), for which the IC50 max was 0.024 µM.

`CC(C)C[C@@H]1NC(=O)[C@@H](C(C)C)NC(=O)C(C)(C)NC(=O)[C@@H](CC(=O)O)NC(=O)[C@@H](Cc2c[nH]c3ccccc23)NC1=O` (single isomer, unassigned) displayed an IC50 max of 0.33 µM.

The compound `CCC[C@@H]1NC(=O)[C@@H](C(C)C)NC(=O)[C@@H]2CCCN2C(=O)[C@@H](CC(=O)O)NC(=O)[C@@H](Cc2c[nH]c3ccccc23)NC1=O` (single isomer, unassigned) displayed an IC50 max of 0.033 µM.

`CC(C)C[C@@H]1NC(=O)[C@@H](C(C)C)NC(=O)[C@H](C)NC(=O)[C@@H](CCC(=O)O)NC(=O)[C@@H](Cc2c[nH]c3ccccc23)NC1=O` (single isomer, unassigned) showed an IC50 max of 3 µM.
